Measured values published in PubChem BioAssay (NCI).
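Step 1: Grow cells in 96-well plates. Step 2: Expose to compound for 48 hours at 5 concentrations. Step 3: Interpolate endpoints linearly; if unreached, use highest concentration. The concentration for full growth arrest is given as TGI.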

What was measured:
Assay in all cases: NCI-60 cell line screen, 48 h
[1] = system: CCRF-CEM leukemia
[2] = system: SNB-19 CNS
[3] = system: MOLT-4 leukemia
[4] = system: UACC-257 melanoma
[5] = system: KM12 colon
[6] = system: A549 NSCLC
[7] = system: CAKI-1 renal
[8] = system: COLO 205 colon
[9] = system: NCI-H23 lung
[10] = system: UACC-62 melanoma
[11] = system: MDA-MB-435
[12] = system: HCC-2998 colon
[13] = system: 786-0 renal
[14] = system: MALME-3M melanoma
[15] = system: OVCAR-5 ovarian
[16] = system: EKVX NSCLC
[17] = system: TK-10 renal
[18] = system: SW-620 colon
[19] = system: HL-60(TB) leukemia
[20] = system: HOP-62 NSCLC
[21] = system: HCT-15 colon
[22] = system: BT-549 breast
[23] = system: NCI-H226 lung
[24] = system: MDA-MB-231 breast
[25] = system: UO-31 renal
[26] = system: RXF 393 renal
[27] = system: IGROV1 ovarian
[28] = system: SF-539 CNS
[29] = system: SN12C renal
[30] = system: NCI/ADR-RES ovarian
[31] = system: SK-MEL-28 melanoma
[32] = system: OVCAR-4 ovarian
[33] = system: DU-145 prostate
[34] = system: SK-MEL-5 melanoma
[35] = system: SR leukemia
[36] = system: A498 renal
[37] = system: SK-OV-3 ovarian
[38] = system: U251 CNS
[39] = system: LOX IMVI melanoma
[40] = system: NCI-H460 lung
[41] = system: SF-295 CNS
[42] = system: K-562 leukemia
[43] = system: HS 578T breast
[44] = system: NCI-H522 lung
[45] = system: RPMI-8226 leukemia
[46] = system: MCF7 breast
[47] = system: PC-3 prostate
[48] = system: SK-MEL-2 melanoma
[49] = system: HOP-92 NSCLC
[50] = system: SF-268 CNS
[51] = system: ACHN renal
[52] = system: M14 melanoma
[53] = system: OVCAR-8 ovarian
[54] = system: HCT-116 colon
[55] = system: OVCAR-3 ovarian
[56] = system: HT29 colon
[57] = system: MDA-N
[58] = system: T-47D breast
[59] = system: SNB-75 CNS

SMILES: Cc1[nH]c(N)nc(=S)c1CCC(=O)O
- TGI [1]: > 100 µM
- TGI [2]: > 100 µM
- TGI [3]: > 100 µM
- TGI [4]: > 100 µM
- TGI [5]: > 100 µM
- TGI [6]: > 100 µM
- TGI [7]: > 100 µM
- TGI [8]: > 100 µM
- TGI [9]: > 100 µM
- TGI [10]: > 100 µM
- TGI [11]: > 100 µM
- TGI [12]: > 100 µM
- TGI [13]: > 100 µM
- TGI [14]: > 100 µM
- TGI [15]: > 100 µM
- TGI [16]: > 100 µM
- TGI [17]: > 100 µM
- TGI [18]: > 100 µM
- TGI [19]: > 100 µM
- TGI [20]: > 100 µM
- TGI [21]: > 100 µM
- TGI [22]: > 100 µM
- TGI [23]: > 100 µM
- TGI [24]: > 100 µM
- TGI [25]: > 100 µM
- TGI [26]: > 100 µM
- TGI [27]: > 100 µM
- TGI [28]: > 100 µM
- TGI [29]: > 100 µM
- TGI [30]: > 100 µM
- TGI [31]: > 100 µM
- TGI [32]: > 100 µM
- TGI [33]: > 100 µM
- TGI [34]: > 100 µM
- TGI [35]: > 100 µM
- TGI [36]: > 100 µM
- TGI [37]: > 100 µM
- TGI [38]: > 100 µM
- TGI [39]: > 100 µM
- TGI [40]: > 100 µM
- TGI [41]: > 100 µM
- TGI [42]: > 100 µM
- TGI [43]: > 100 µM
- TGI [44]: > 100 µM
- TGI [45]: > 100 µM
- TGI [46]: > 100 µM
- TGI [47]: > 100 µM
- TGI [48]: > 100 µM
- TGI [49]: > 100 µM
- TGI [50]: > 100 µM
- TGI [51]: > 100 µM
- TGI [52]: > 100 µM
- TGI [53]: > 100 µM
- TGI [54]: > 100 µM
- TGI [55]: > 100 µM
- TGI [56]: > 100 µM
- TGI [57]: > 100 µM

SMILES: Cc1ccc(S(=O)(=O)N/N=C2\CC3CC4CCC2C4C3)cc1 (stereo unspecified)
- TGI [1]: > 100 µM
- TGI [3]: > 100 µM
- TGI [4]: > 100 µM
- TGI [5]: > 100 µM
- TGI [6]: > 100 µM
- TGI [7]: > 100 µM
- TGI [8]: > 100 µM
- TGI [9]: > 100 µM
- TGI [10]: > 100 µM
- TGI [11]: > 100 µM
- TGI [12]: > 100 µM
- TGI [13]: > 100 µM
- TGI [14]: > 100 µM
- TGI [15]: > 100 µM
- TGI [16]: > 100 µM
- TGI [17]: > 100 µM
- TGI [18]: > 100 µM
- TGI [19]: > 100 µM
- TGI [20]: > 100 µM
- TGI [21]: > 100 µM
- TGI [22]: > 100 µM
- TGI [23]: > 100 µM
- TGI [58]: > 100 µM
- TGI [24]: > 100 µM
- TGI [25]: > 100 µM
- TGI [26]: > 100 µM
- TGI [27]: > 100 µM
- TGI [28]: > 100 µM
- TGI [29]: > 100 µM
- TGI [31]: > 100 µM
- TGI [32]: > 100 µM
- TGI [33]: > 100 µM
- TGI [34]: > 100 µM
- TGI [35]: > 100 µM
- TGI [36]: > 100 µM
- TGI [37]: > 100 µM
- TGI [38]: > 100 µM
- TGI [39]: > 100 µM
- TGI [40]: > 100 µM
- TGI [41]: > 100 µM
- TGI [42]: > 100 µM
- TGI [43]: > 100 µM
- TGI [44]: > 100 µM
- TGI [45]: > 100 µM
- TGI [46]: > 100 µM
- TGI [47]: > 100 µM
- TGI [59]: > 100 µM
- TGI [49]: > 100 µM
- TGI [50]: > 100 µM
- TGI [51]: > 100 µM
- TGI [52]: > 100 µM
- TGI [53]: > 100 µM
- TGI [54]: > 100 µM
- TGI [55]: > 100 µM
- TGI [56]: > 100 µM
- TGI [57]: > 100 µM

SMILES: Cc1ccc(-c2cc[n+]3c(n2)oc2ccccc23)cc1
- TGI [1]: 36.3 µM
- TGI [2]: > 100 µM
- TGI [3]: 31.3 µM
- TGI [4]: 59.2 µM
- TGI [5]: > 100 µM
- TGI [6]: > 100 µM
- TGI [7]: > 100 µM
- TGI [8]: 68.5 µM
- TGI [9]: > 100 µM
- TGI [10]: 97.7 µM
- TGI [11]: 57.6 µM
- TGI [12]: > 100 µM
- TGI [13]: 29.5 µM
- TGI [14]: 29.1 µM
- TGI [15]: > 100 µM
- TGI [16]: 56.2 µM
- TGI [18]: > 100 µM
- TGI [19]: 44.2 µM
- TGI [21]: > 100 µM
- TGI [22]: 76.6 µM
- TGI [58]: > 100 µM
- TGI [24]: > 100 µM
- TGI [25]: > 100 µM
- TGI [27]: > 100 µM
- TGI [28]: 58.6 µM
- TGI [29]: > 100 µM
- TGI [30]: > 100 µM
- TGI [31]: 57.8 µM
- TGI [32]: 48.8 µM
- TGI [33]: > 100 µM
- TGI [35]: 47 µM
- TGI [36]: 65.4 µM
- TGI [37]: > 100 µM
- TGI [38]: > 100 µM
- TGI [39]: > 100 µM
- TGI [40]: > 100 µM
- TGI [41]: > 100 µM
- TGI [42]: 22.5 µM
- TGI [43]: 81.5 µM
- TGI [44]: 20 µM
- TGI [45]: 54.4 µM
- TGI [46]: > 100 µM
- TGI [48]: 46.6 µM
- TGI [59]: 65.3 µM
- TGI [49]: 47.3 µM
- TGI [50]: > 100 µM
- TGI [51]: 99.4 µM
- TGI [52]: 84.5 µM
- TGI [53]: 41.2 µM
- TGI [54]: > 100 µM
- TGI [55]: 40.9 µM
- TGI [57]: > 100 µM

SMILES: CO/N=C(\C([O-])=N\[n+]1cnn(CC(=O)OC(C)(C)C)c1)c1csc(NC(c2ccccc2)(c2ccccc2)c2ccccc2)n1
- TGI [1]: > 10 µM
- TGI [2]: > 10 µM
- TGI [3]: > 10 µM
- TGI [4]: > 10 µM
- TGI [5]: > 10 µM
- TGI [6]: > 10 µM
- TGI [7]: > 10 µM
- TGI [8]: > 10 µM
- TGI [9]: > 10 µM
- TGI [12]: > 10 µM
- TGI [13]: > 10 µM
- TGI [14]: > 10 µM
- TGI [15]: > 10 µM
- TGI [16]: > 10 µM
- TGI [17]: > 10 µM
- TGI [18]: > 10 µM
- TGI [19]: > 10 µM
- TGI [20]: > 10 µM
- TGI [21]: > 10 µM
- TGI [22]: > 10 µM
- TGI [23]: > 10 µM
- TGI [58]: > 10 µM
- TGI [25]: > 10 µM
- TGI [26]: > 10 µM
- TGI [27]: > 10 µM
- TGI [28]: > 10 µM
- TGI [29]: > 10 µM
- TGI [30]: > 10 µM
- TGI [31]: > 10 µM
- TGI [32]: > 10 µM
- TGI [33]: > 10 µM
- TGI [34]: > 10 µM
- TGI [35]: > 10 µM
- TGI [36]: > 10 µM
- TGI [37]: > 10 µM
- TGI [38]: > 10 µM
- TGI [39]: > 10 µM
- TGI [40]: > 10 µM
- TGI [41]: > 10 µM
- TGI [42]: > 10 µM
- TGI [43]: > 10 µM
- TGI [44]: > 10 µM
- TGI [45]: > 10 µM
- TGI [46]: > 10 µM
- TGI [47]: > 10 µM
- TGI [48]: > 10 µM
- TGI [59]: > 10 µM
- TGI [49]: > 10 µM
- TGI [50]: > 10 µM
- TGI [51]: > 10 µM
- TGI [52]: > 10 µM
- TGI [53]: > 10 µM
- TGI [54]: > 10 µM
- TGI [55]: > 10 µM
- TGI [56]: > 10 µM
- TGI [57]: > 10 µM
